Experimental data taken from patent US6943158B2, “Diazinopyrimidines” (Roche Palo Alto LLC, priority 2002, dated 2005).

What was measured:
[1] = molecular target: T1, FGFR; experiment: in vitro FGFR kinase inhibition HTRF assay; format: biochemical; conditions: recombinant GST-tagged FGFR, 10 μM ATP, 37° C. 30 minutes
T1 construct: fused on or other part: GST tag
Experimental: To determine inhibition of FGFR activity, kinase assays were conducted using an HTRF (Homogeneous Time Resolved Fluorescence) assay. This assay is described in A. J. Kolb et. al., Drug Discovery Today, 1998, 3(7), p 333.
Prior to kinase reaction, recombinant GST-tagged FGFR enzyme was activated at room temperature for 1 hour in the following activation buffer: 100 mM HEPES, pH 7.4, 50 mM NaCl, 20 mM MgCl2, and 4 mM ATP.
Kinase activity assays were performed in 96-well polypropylene plates (Falcon) with a total volume of 90 μL in each well. Each well contained 1 μM substrate (Biotin-EEEEYFELV), 1.5 μM activated FGFR, and a test compound with one of 8 assay concentrations ranging from 100 μM to […] (1:5 serial dilution). The kinase activity assay was done in the presence of 100 mM HEPES, pH 7.4, 1 mM DTT, 0.1 mM Na2VO4, 0.4 mM MgCl2, 0.4 mM MnCl2, 50 mM NaCl (from KDR stock solution), 1% DMSO (from compound), 10 μM ATP (Km=8.5 μM for FGFR) and 0.02% BSA. The reaction was incubated at 37° C. for 30 minutes. To stop the FGFR reaction, 72 μL of reaction mixture was transferred into a STOP plate containing 18 μL of revelation buffer (20 mM EDTA, 50 mM HEPES, pH 7.4, 0.02% BSA, 10 nM Eu-labelled anti-p Y antibody (final conc. 2 nM), and 100 nM streptavidin (final conc. 20 nM)). After mixing, 35 μL of solution was transferred into duplicate wells of a 384-well black plate (Costar), and read at 615/665 nm on a Wallac Victor 5 reader.
Compound IC50 values were determined from duplicate sets of data, and calculated by using Excel and fitting data to equation Y=[(a−b)/{1+(X/c)^d]+b, where a and b are enzyme activity in the presence of no test inhibitor compound and an infinite amount of inhibitor test compound, respectively, c is the IC50 and d is the hill constant of the compound response. The IC50 value is the concentration of test compound that reduces by 50% the enzyme activity under the test conditions described. Compounds of the invention were active in the assay. Selected IC50 values are shown below.

[2] = molecular target: T2, p38 MAP kinase (Homo sapiens, UniProt Q16539); experiment: in vitro p38 MAP kinase inhibition assay (transfer of γ-33P from ATP to Myelin Basic Protein); format: biochemical; conditions: phosphorylated recombinant p38 MAP kinase, MBP substrate, γ-33P-ATP; read-out: p-38 inhibitory activity, IC50
T2 construct: made in house; host or cells: E. coli (co-expressed with SEK-1 and MEKK to phosphorylate it)
Experimental: This example illustrates an in vitro assay procedure for determining p38 MAP kinase inhibition by a compound of Formula I.
The p-38 MAP kinase inhibitory activity of compounds of this invention in vitro is determined by measuring the transfer of the γ-phosphate from γ-^33P-ATP by p-38 kinase to Myelin Basic Protein (MBP), using the a minor modification of the method described in Ahn, N. G.; et al. J. Biol. Chem. Vol. 266(7), 4220-4227, (1991).
The phosphorylated form of the recombinant p38 MAP kinase was expressed with SEK-1 and MEKK in E. Coli and then purified by affinity chromatography using a Nickel column.
The phosphorylated p38 MAP kinase is diluted in kinase buffer (20 mM 3-(N-morpholino)propanesulfonic acid, pH 7.2, 25 mM β-glycerol phosphate, 5 mM ethylene glycol-bis(beta-aminoethyl ether)-N,N,N′,N′-tetraacetic acid, 1 mM sodium vanadate, 1 mM dithiothreitol, 40 mM magnesium chloride). Test compound dissolved in DMSO or only DMSO (control) is added and the samples are incubated for 10 min at 30° C. The kinase reaction is initiated by the addition of a substrate cocktail containing MBP and γ-^33P-ATP. […] The phosphorylated MBP is then separated from the residual γ-^33P-ATP using a phosphocellulose membrane (Millipore, Bedford, Mass.) and quantitated using a scintillation counter (Packard, Meriden, Conn.). […]

T2 sequence (Q16539 whole entry): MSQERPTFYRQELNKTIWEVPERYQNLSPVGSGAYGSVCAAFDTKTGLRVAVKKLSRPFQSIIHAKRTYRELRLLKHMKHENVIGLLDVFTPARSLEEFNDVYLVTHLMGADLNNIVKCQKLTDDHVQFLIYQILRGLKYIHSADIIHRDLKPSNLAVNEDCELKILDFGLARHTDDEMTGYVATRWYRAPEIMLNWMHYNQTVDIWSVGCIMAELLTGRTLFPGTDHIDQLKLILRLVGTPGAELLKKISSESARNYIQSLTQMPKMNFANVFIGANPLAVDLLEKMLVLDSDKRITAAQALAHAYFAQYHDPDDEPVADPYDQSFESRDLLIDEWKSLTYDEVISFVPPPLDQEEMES

A melting point of 192.2 to 200.3 °C was found for `CN1N=C(c2c(Cl)cccc2Cl)Oc2cnc(Nc3ccc(N4CCOCC4)cc3)nc21` [compound 29, [3-(2,6-dichlorophenyl)-1-methyl-1H-pyrimido[4,5-e][1,3,4]oxadiazin-7-yl]-(4-morpholin-4-yl-phenyl)amine] in this work.
An IC50 [1] of 240 nM was found for `CN1N=C(c2c(Cl)cccc2Cl)Oc2cnc(Nc3ccc(F)cc3)nc21` [compound 6, [3-(2,6-Dichloro-phenyl)-1-methyl-1H-pyrimido[4,5-e][1,3,4]oxadiazin-7-yl]-(4-fluoro-phenyl)-amine] in this work.
An IC50 [1] of 320 nM was found for `CN1N=C(c2c(Cl)cccc2Cl)Oc2cnc(Nc3cccc(Cl)c3)nc21` [compound 7, [3-(2,6-Dichloro-phenyl)-1-methyl-1H-pyrimido[4,5-e][1,3,4]oxadiazin-7-yl]-(3-chloro-phenyl)-amine] in this work.
An IC50 [2] of 2200 nM was found for `CN1N=C(c2ccccc2F)Oc2cnc(NC3CCOCC3)nc21` [compound 2] in this work.
A melting point of 171 to 172.1 °C and an IC50 [2] of 189 nM were found for `CN1N=C(c2ccccc2Cl)Oc2cnc(NC3CCOCC3)nc21` [compound 1, 2-methyl-4-(2-chlorophenyl)-6-(tetrahydropyranyl-4-amino)-4H-1,3,4-pyrimido[4,5-e]oxadiazine] in this work.
An IC50 [1] of 180 nM was found for `CN1N=C(c2c(Cl)cccc2Cl)Oc2cnc(Nc3ccccc3)nc21` [compound 5, [3-(2,6-dichlorophenyl)-1-methyl-1H-pyrimido[4,5-e][1,3,4]oxadiazin-7-yl]-phenyl-amine] in this work.
